Here are results for 41 compounds from US3984432A, “Color photographic recording material” (priority 1973, dated 1976).

A short description of the first series: Absorption maximum after colour development in a photographic silver halide layer according to Use Example I.
Conditions: not given
Format: physicochemical. The method, then: The compounds of the formulae which follow are prepared according to methods which are in themselves known, from the corresponding 4-equivalentcoupling agents (the corresponding compounds with hydrogen in the position marked with *, in place of the substituents drawn). With regard to methods of manufacture, compare DT-OS or DT-AS 1,236,332, 2,043,271, 1,547,672 or 1,187,477. Next to the formula, the absorption maximum in nm is specified in each case (see footnote to Table I). ##SPC8##
*)After colour development of the coupling agents in a photographic silve
halide layer according to Use Example I
0.3 mmol of coupling agent of the formula (215) is dissolved in 2.0 ml of tricresyl phosphate/methylene chloride (3:7). The methylene chloride is evaporated off, 6.0 ml of an 8% strength aqueous solution of sodium isopropylnaphthalene-sulphonate, 20.0 ml of 6% strength gelatine solution and 3.4 ml of water are added and the mixture is adjusted to pH 6.5 and emulsified for 5 minutes by means of an ultrasonic apparatus with an output of 100 watt.
5.0 of coupling agent emulsion freshly treated with ultrasonics, 3.3 ml of silver bromide emulsion of pH 6.5, containing 1.4% of silver and 6.0% of gelatine, 2.0 ml of 1% strength aqueous solution of the hardener of the formula [formula] and 1.7 ml of water are mixed with one another and cast at 40°C on a substrated glass plate of size 13 cm × 18 cm. After solidifying at 10° C, the plate is dried in a drying cabinet with circulating air at 32° C.
A strip cut to 4.0 cm × 6.5 cm is exposed to 500 Lux/cm^2 under a step wedge for 2 seconds and is subsequently treated at 24° C as follows: […]
For `CCOP(=O)(CCCc1ccc(NC(=O)CC(=O)c2ccccc2)cc1)OCC` [(101)], the “Abs.max. (single maximum)” value came out at 437 nm.
On the same count and under the same terms, the figure for `CCOP(=O)(CCCN(C)c1cccc(NC(=O)CC(=O)c2ccccc2)c1)OCC` [(104)] is 435 nm; for `Cc1ccc(C(=O)NCCCP2(=O)OCC(C)(C)CO2)cc1NC(=O)CC(=O)c1ccc(Cl)cc1` [(139)] it is 441 nm.
`CCCCOP(=O)(CCCOc1cc(OCCCP(=O)(OCCCC)OCCCC)cc(C(=O)Nc2cccc(NC(=O)CC(=O)C(C)(C)C)c2)c1)OCCCC` [(115)]: the “Abs.max. (single maximum)” value stood at 435 nm.
Regarding `CCOP(=O)(CC(=O)Nc1cccc(NC(=O)CC(=O)c2ccccc2)c1)OCC` [(106)], the “Abs.max. (single maximum)” value is on record as 442 nm.
Still for that read-out and setting: then `CCOP(=O)(OCC)C(C)(C)NC(=O)c1cccc(NC(=O)CC(=O)c2ccccc2)c1` [(108)], with 440 nm; and `CCCCOP(=O)(Cc1ccc(CP(=O)(OCCCC)OCCCC)c(NC(=O)c2ccc(C)c(NC(=O)CC(=O)c3ccccc3Cl)c2)c1)OCCCC` [(143)], with 440 nm; and `CCCCOP(=O)(CCCc1ccc(NC(=O)CC(=O)c2ccc(Cl)cc2)cc1)OCCCC` [(125)], with 440 nm.
The same measure, in the same setting: the figure for `CCCCOP(=O)(Cc1ccc(CP(=O)(OCCCC)OCCCC)c(NC(=O)c2ccc(OC)c(NC(=O)CC(=O)c3ccc(C(C)(C)C)cc3)c2)c1)OCCCC` [(136)] is 440 nm; for `COc1ccc(C(=O)CC(=O)Nc2ccc(OP(=O)(Oc3ccccc3)C(C)(C)C)cc2)cc1` (centres unmarked) [(130)] it is 437 nm; for `CCCCOP(=O)(CCCc1ccc(NC(=O)c2ccc(OC)c(NC(=O)CC(=O)c3ccc(OC)cc3)c2)cc1)OCCCC` [(126)] it is 448 nm.
Same read-out and setting: the figure for `CCOP(=O)(Cc1ccc(NC(=O)CC(=O)c2ccccc2)cc1)OCC` [(102)] is 438 nm; for `CCCCOP(=O)(CCCc1ccc(NC(=O)c2ccc(OC)c(NC(=O)CC(=O)C(C)(C)C)c2)cc1)OCCCC` [(118)] it is 438 nm; for `CCOP(=O)(CCCOc1cccc(C(=O)Nc2cccc(C(=O)CC(=O)Nc3cc(C)ccc3OC)c2)c1)OCC` [(112)] it is 440 nm.
For `CCCCOP(=O)(CCCC)Nc1cccc(NC(=O)c2cc(NC(=O)CC(=O)c3ccccc3)ccc2Cl)c1` (centres unmarked) [(141)], the “Abs.max. (single maximum)” value is listed as 438 nm.
Regarding `CCCCOP(=O)(CCCOc1cc(OCCCP(=O)(OCCCC)OCCCC)cc(C(=O)Nc2cc(Cl)c(C)c(Cl)c2O)c1)OCCCC` [(701)], the “Abs.max. (single maximum)” value is 662 nm.
The same measure, in the same setting: then `CCCCOP(=O)(CC(=O)Nc1cccc(NC(=O)CC(=O)C(C)(C)C)c1)OCCCC` [(105)], with 436 nm; and `CCCCOP(=O)(CCCOc1cc(OCCCP(=O)(OCCCC)OCCCC)cc(C(=O)Nc2ccc(NC(=O)CC(=O)C(C)(C)C)cc2)c1)OCCCC` [(114)], with 431 nm.
Take `COc1ccc(C(=O)CC(=O)Nc2cc(C(=O)NCCCP(=O)(OC(C)C)OC(C)C)ccc2C(=O)NCCCP(=O)(OC(C)C)OC(C)C)cc1` [(131)]: the “Abs.max. (single maximum)” value amounted to 442 nm.
Same read-out and setting: then `CCCCC(CC)COP(=O)(CCCOc1cccc(C(=O)Nc2cccc(C(=O)CC(=O)Nc3cc(C)ccc3OC)c2)c1)OCC(CC)CCCC` (centres unmarked) [(120)], with 434 nm.

The series is the same for the next values; noted with them: pyrazolone coupling agents.
As for `CCCCOP(=O)(CCCOc1cccc(NC2=NN(c3c(Cl)cc(Cl)cc3Cl)C(=O)C2)c1)OCCCC` [(409)], the “Abs.max., first of two maxima (subsidiary maximum)” value (from here on “Abs.max., first of two maxima”) is 426 nm and the “Abs.max., second of two maxima (absorption maximum)” value (from here on “Abs.max., second of two maxima”) turned out to be 530 nm.
`CCOP(=O)(CCCc1ccc(NC2=NN(c3cccc(Cl)c3)C(=O)C2)cc1)OCC` [(410)]: the “Abs.max., first of two maxima” value stood at 438 nm and the “Abs.max., second of two maxima” value is 532 nm.
The matching figures for `CC(C)OP(=O)(CCCOc1cc(OCCCP(=O)(OC(C)C)OC(C)C)cc(C(=O)Nc2cccc(C(=O)NC3=NN(c4c(Cl)cc(Cl)cc4Cl)C(=O)C3)c2)c1)OC(C)C` [(240)]: 434 nm and 544 nm.
The matching figures for `CCCCOP(=O)(CCCOc1cccc(C(=O)Nc2ccc(C(=O)NC3=NN(c4c(Cl)cc(Cl)cc4Cl)C(=O)C3)cc2)c1)OCCCC` [(211)]: 434 nm and 543 nm.
The matching figures for `CCOP(=O)(CCCc1ccc(NC2=NN(c3c(Cl)cc(Cl)cc3Cl)C(=O)C2)cc1)OCC` [(408)]: 426 nm and 530 nm.
In the case of `CCCCOP(=O)(CCCOc1cc(OCCCP(=O)(OCCCC)OCCCC)cc(C(=O)Nc2cccc(C(=O)NC3=NN(c4c(Cl)cc(OC)cc4Cl)C(=O)C3)c2)c1)OCCCC` [(266)], the “Abs.max., first of two maxima” value turned out to be 436 nm and the “Abs.max., second of two maxima” value was determined as 540 nm.
On the same counts, the results for `CCCCOP(=O)(CCCOc1cc(OCCCP(=O)(OCCCC)OCCCC)cc(C(=O)Nc2cccc(C(=O)NC3=NN(c4c(C)cc(Cl)cc4Cl)C(=O)C3)c2)c1)OCCCC` [(272)] are 438 nm and 540 nm.
The matching figures for `CCCCOP(=O)(CCCOc1cc(OCCCP(=O)(OCCCC)OCCCC)cc(C(=O)NC2=NN(c3c(Cl)cc(Cl)cc3Cl)C(=O)C2)c1)OCCCC` [(221)]: 436 nm and 538 nm.
The matching figures for `CC(C)OP(=O)(CCCCCOc1cc(OCCCCCP(=O)(OC(C)C)OC(C)C)cc(C(=O)Nc2cccc(C(=O)NC3=NN(c4ccccc4)C(=O)C3)c2)c1)OC(C)C` [(239)]: 440 nm and 532 nm.
`CCOP(=O)(CCCOc1cccc(C(=O)NC2=NN(c3c(Cl)cc(Cl)cc3Cl)C(=O)C2)c1)OCC` [(202)]: the “Abs.max., first of two maxima” value stood at 434 nm and the “Abs.max., second of two maxima” value was 535 nm.
The matching figures for `CCCCOP(=O)(CCCOc1cc(OCCCP(=O)(OCCCC)OCCCC)cc(C(=O)Nc2cccc(C(=O)NC3=NN(c4c(C)cc(C)cc4Cl)C(=O)C3)c2)c1)OCCCC` [(261)]: 440 nm and 535 nm.
On the same counts, the results for `CCCCC(CC)COP(=O)(CCCOc1cccc(C(=O)Nc2cccc(C(=O)NC3=NN(c4c(Cl)cc(Cl)cc4OC)C(=O)C3)c2)c1)OCC(CC)CCCC` (centres unmarked) [(268)] are 438 nm and 540 nm.
The matching figures for `CCCCOP(=O)(CCCOc1ccc(C(=O)Nc2cccc(C(=O)NC3=NN(c4c(Cl)cc(Cl)cc4Cl)C(=O)C3)c2)c(OCCCP(=O)(OCCCC)OCCCC)c1)OCCCC` [(248)]: 436 nm and 541 nm.
Turning to `CCCCC(CC)COP(=O)(CCCOc1cccc(C(=O)Nc2cccc(C(=O)NC3=NN(c4cccc(Cl)c4)C(=O)C3)c2)c1)OCC(CC)CCCC` (centres unmarked) [(256)], the “Abs.max., first of two maxima” value is recorded as 438 nm and the “Abs.max., second of two maxima” value came out at 534 nm.
Consider `CCOP(=O)(CCCOc1cccc(C(=O)Nc2ccc(NC3=NN(c4ccccc4)C(=O)C3)cc2)c1)OCC` [(416)], for which the “Abs.max., first of two maxima” value is 426 nm and the “Abs.max., second of two maxima” value came out at 528 nm.
The matching figures for `CCCCC(CC)COP(=O)(CCCOc1cc(OCCCP(=O)(OCC(CC)CCCC)OCC(CC)CCCC)cc(C(=O)Nc2cccc(C(=O)NC3=NN(c4ccccc4)C(=O)C3)c2)c1)OCC(CC)CCCC` (centres unmarked) [(235)]: 440 nm and 532 nm.
On the same counts, the results for `CCCCC(CC)COP(=O)(CCCOc1cccc(C(=O)Nc2cccc(C(=O)NC3=NN(c4nc5ccccc5s4)C(=O)C3)c2)c1)OCC(CC)CCCC` (centres unmarked) [(259)] are 548 nm and 583 nm.
Turning to `CCOP(=O)(CCCOc1cccc(C(=O)Nc2c(C)cc(C)c(N3N=C(Nc4ccc(Cl)cc4)CC3=O)c2C)c1)OCC` [(425)], the “Abs.max., first of two maxima” value was determined as 430 nm and the “Abs.max., second of two maxima” value came out at 530 nm.
On the same counts, the results for `CCCCC(CC)COP(=O)(CCCOc1ccc(C(=O)Nc2cccc(C(=O)NC3=NN(c4c(Cl)cc(Cl)cc4Cl)C(=O)C3)c2)c(OCCCP(=O)(OCC(CC)CCCC)OCC(CC)CCCC)c1)OCC(CC)CCCC` (centres unmarked) [(251)] are 436 nm and 540 nm.
Regarding `CCOP(=O)(CCCOc1ccc(C(=O)Nc2cccc(C(=O)NC3=NN(c4c(Cl)cc(Cl)cc4Cl)C(=O)C3)c2)cc1)OCC` [(206)], the “Abs.max., first of two maxima” value is 434 nm and the “Abs.max., second of two maxima” value came to 542 nm.
On the same counts, the results for `CCOP(=O)(CCCOc1ccc(C(=O)Nc2ccc(C(=O)NC3=NN(c4c(Cl)cc(Cl)cc4Cl)C(=O)C3)cc2)cc1)OCC` [(203)] are 434 nm and 539 nm.
